From patent US10035794B2, “Heterocyclic derivatives and their use in the treatment of neurological disorders” (NOVARTIS AG, priority 2011, dated 2018)
Structures can show the parent of a compound that is named as a salt.

Test: Test 4: Inhibition of Cellular Release of Amyloid Peptide 1-40
Assay type: cell-based, Chinese hamster
Details: Cricetulus griseus, CHO, 24 h; read-out: Amyloid-β1-40 release IC50
Experimental: Chinese hamster ovary cells are transfected with the human gene for amyloid precursor protein. The cells are plated at a density of 8000 cells/well into 96-well microtiter plates and cultivated for 24 hours in DMEM cell culture medium containing 10% FCS. The test compound is added to the cells at various concentrations, and the cells are cultivated for 24 hours in the presence of the test compound.

Row | SMILES | IC50
1 | CC1(c2cccc(NC(=O)c3ccc(Br)cn3)n2)COCC(N)=N1 (racemic) [Example 2, 5-Bromo-pyridine-2-carboxylic acid [6-(5-amino-3-methyl-3,6-dihydro-2H-[1,4]-oxazin-3-yl)-pyridin-2-yl]-amide] | 58 nM
2 | C[C@@]1(c2cccc(NC(=O)c3ccc(Br)cn3)n2)COCC(N)=N1 [Example 1, 5-Bromo-pyridine-2-carboxylic acid [6-((R)-5-amino-3-methyl-3,6-dihydro-2H-[1,4]-oxazin-3-yl)-pyridin-2-yl]-amide] | 41 nM
3 | [2H]c1nc(C(=O)Nc2cccc(C3(CF)COCC(N)=N3)n2)c(C([2H])([2H])[2H])c([2H])c1Cl (centres unmarked) [Example 6, 5-{6-[(4,6-Dideutero-5-chloro-3-trideuteromethyl-pyridine-2-carbonyl)-amino]-pyridin-2-yl}-5-fluoromethyl-5,6-dihydro-2H-[1,4]oxazin-3-yl-ammonium trifluoro acetate] | 63 nM
4 | Cc1cc(C#N)cnc1C(=O)Nc1cccc([C@]2(C)CO[C@@](C)(C(F)(F)F)C(N)=N2)n1 [Example 8, 5-Cyano-3-methyl-pyridine-2-carboxylic acid [6-((3R,6R)-5-amino-3,6-dimethyl-6-trifluoro-methyl-3,6-dihydro-2H-[1,4]oxazin-3-yl)-pyridin-2-yl]-amide] | 6 nM
5 | C[C@]1(c2cccc(NC(=O)c3ccc(C#N)cn3)n2)CO[C@@](C)(C(F)(F)F)C(N)=N1 [Example 9, 5-Cyano-pyridine-2-carboxylic acid [6-((3S,6R)-5-amino-3,6-dimethyl-6-trifluoromethyl-3,6-dihydro-2H-[1,4]oxazin-3-yl)-pyridin-2-yl]-amide] | 1900 nM
6 | C[C@@]1(c2cccc(NC(=O)c3ccc(C#N)cn3)n2)CO[C@@](C)(C(F)(F)F)C(N)=N1 [Example 10, 5-Cyano-pyridine-2-carboxylic acid [6-((3R,6R)-5-amino-3,6-dimethyl-6-trifluoromethyl-3,6-dihydro-2H-[1,4]oxazin-3-yl)-pyridin-2-yl]-amide] | 17 nM
7 | Cc1cc(C#N)cnc1C(=O)Nc1ccc(F)c([C@]2(C)CO[C@@](C)(C(F)(F)F)C(N)=N2)n1 [Example 11, 5-Cyano-3-methyl-pyridine-2-carboxylic acid [6-((3R,6R)-5-amino-3,6-dimethyl-6-trifluoromethyl-3,6-dihydro-2H-[1,4]oxazin-3-yl)-5-fluoro-pyridin-2-yl]-amide] | 2 nM
8 | Cc1cc(C#N)cnc1C(=O)Nc1ccc(F)c([C@@]2(C)CO[C@@](C)(C(F)(F)F)C(N)=N2)n1 [Example 12, 5-Cyano-3-methyl-pyridine-2-carboxylic acid [6-((3S,6R)-5-amino-3,6-dimethyl-6-trifluoromethyl-3,6-dihydro-2H-[1,4]oxazin-3-yl)-5-fluoro-pyridin-2-yl]-amide] | 280 nM
9 | [2H]c1nc(C(=O)Nc2cc(C3(CF)COCC(N)=N3)ccn2)c(C([2H])([2H])[2H])c([2H])c1Cl (centres unmarked) [Example 13, 5-{2-[(5-Chloro-4,6-dideutero-3-trideuteromethyl-pyridine-2-carbonyl)-amino]-pyridin-4-yl}-5-fluoromethyl-5,6-dihydro-2H-[1,4]oxazin-3-yl-ammonium acetate] | 550 nM
10 | Cc1cc(C#N)cnc1C(=O)Nc1cc([C@@]2(C)CO[C@@](C)(C(F)(F)F)C(N)=N2)c(F)cn1 [Example 17, 5-Cyano-3-methyl-pyridine-2-carboxylic acid [4-((3S,6R)-5-amino-3,6-dimethyl-6-trifluoromethyl-3,6-dihydro-2H-[1,4]oxazin-3-yl)-5-fluoro-pyridin-2-yl]-amide] | 4800 nM
11 | NC1=NC(CF)(c2cc(NC(=O)c3ccc(Br)cn3)cnc2Cl)COC1 (centres unmarked) [Example 18, 5-Bromo-pyridine-2-carboxylic acid [5-(5-amino-3-fluoromethyl-3,6-dihydro-2H-[1,4]oxazin-3-yl)-6-chloro-pyridin-3-yl]-amide hydrochloride] | 15 nM
12 | C[C@@]1(c2cccc(NC(=O)c3ncc(C#N)cc3N)n2)CO[C@@](C)(C(F)(F)F)C(N)=N1 [Example 19, 3-Amino-5-cyano-pyridine-2-carboxylic acid [6-((3R,6R)-5-amino-3,6-dimethyl-6-trifluoromethyl-3,6-dihydro-2H-[1,4]oxazin-3-yl)-pyridin-2-yl]-amide] | 48 nM
13 | C[C@@]1(c2cccc(NC(=O)c3ncc(C#N)cc3Cl)n2)CO[C@@](C)(C(F)(F)F)C(N)=N1 [Example 20, 3-Chloro-5-cyano-pyridine-2-carboxylic acid [6-((3R,6R)-5-amino-3,6-dimethyl-6-trifluoromethyl-3,6-dihydro-2H-[1,4]oxazin-3-yl)-pyridin-2-yl]-amide] | 5 nM
14 | [2H]c1nc(C(=O)Nc2cccc([C@]3(C)CO[C@@](C)(C(F)(F)F)C(N)=N3)n2)c(C([2H])([2H])[2H])c([2H])c1Cl [Example 21, 5-Chloro-4,6-dideuterio-3-trideuteriomethyl-pyridine-2-carboxylic acid [6-((3R,6R)-5-amino-3,6-dimethyl-6-trifluoromethyl-3,6-dihydro-2H-[1,4]oxazin-3-yl)-pyridin-2-yl]-amide] | 110 nM
15 | C[C@@]1(c2cccc(NC(=O)c3ncc(Br)cc3Cl)n2)CO[C@@](C)(C(F)(F)F)C(N)=N1 [Example 22, 5-Bromo-3-chloro-pyridine-2-carboxylic acid [6-((3R,6R)-5-amino-3,6-dimethyl-6-trifluoromethyl-3,6-dihydro-2H-[1,4]oxazin-3-yl)-pyridin-2-yl]-amide] | 29 nM
16 | COc1cnc(C(=O)Nc2ccc(F)c([C@]3(C)CO[C@@](C)(C(F)(F)F)C(N)=N3)n2)c(C)c1 [Example 25, 5-Methoxy-3-methyl-pyridine-2-carboxylic acid [6-((3R,6R)-5-amino-3,6-dimethyl-6-trifluoromethyl-3,6-dihydro-2H-[1,4]oxazin-3-yl)-5-fluoro-pyridin-2-yl]amide] | 76 nM
17 | Cc1cc(OC(F)F)cnc1C(=O)Nc1ccc(F)c([C@]2(C)CO[C@@](C)(C(F)(F)F)C(N)=N2)n1 [Example 29, 5-Difluoromethoxy-3-methyl-pyridine-2-carboxylic acid [6-((3R,6R)-5-amino-3,6-dimethyl-6-trifluoromethyl-3,6-dihydro-2H-[1,4]oxazin-3-yl)-5-fluoro-pyridin-2-yl]amide] | 24 nM
18 | Cc1cc(OCF)cnc1C(=O)Nc1ccc(F)c([C@]2(C)CO[C@@](C)(C(F)(F)F)C(N)=N2)n1 [Example 32, 5-Fluoromethoxy-3-methyl-pyridine-2-carboxylic acid [6-((3R,6R)-5-amino-3,6-dimethyl-6-trifluoromethyl-3,6-dihydro-2H-[1,4]oxazin-3-yl)-5-fluoro-pyridin-2-yl]amide] | 26 nM
19 | Cc1cnc(C(=O)Nc2ccc(F)c([C@]3(C)CO[C@@](C)(C(F)(F)F)C(N)=N3)n2)cn1 [Example 33, 5-Methyl-pyrazine-2-carboxylic acid [6-((3R,6R)-5-amino-3,6-dimethyl-6-trifluoromethyl-3,6-dihydro-2H-[1,4]oxazin-3-yl)-5-fluoro-pyridin-2-yl]amide] | 130 nM
20 | C[C@@]1(c2cc(NC(=O)c3ncc(C#N)cc3Cl)ncc2F)CO[C@@](C)(C(F)(F)F)C(N)=N1 [Example 35, 3-Chloro-5-cyano-pyridine-2-carboxylic acid [4-((3R,6R)-5-amino-3,6-dimethyl-6-trifluoromethyl-3,6-dihydro-2H-[1,4]oxazin-3-yl)-5-fluoro-pyridin-2-yl]-amide] | 140 nM
